In US5886178A, “3-aroylbenzylpyridazinone derivatives” (Syntex (U.S.A.) Inc., priority 1997, dated 1999):

Legend:
[1] = Acetic Acid-induced Rat Writhing Assay (analgesic activity); format: in vivo; details: 10 mg/Kg, oral, male Sprague Dawley rats
Excerpt: The analgesic activity of compounds of this invention may be determined by the Acetic Acid-induced Rat Writhing Assay, using a modification of the method described in Berkenkopf, J. W. and Weichman, B. M. "Production of Prostacyclin in Mice following Intraperitoneal Injection of Acetic Acid, Phenylbenzoquinone and Zymosan: Its Role in the Writhing Response". Prostaglandins: 36: 693-70 (1988). This assay is one of several acute assays which have been used to assess the analgesic activity of NSAIDs, and is considered predictive of human efficacy. The test materials were administered orally to male Sprague Dawley rats in a volume of 1 ml/100 g body weight as solutions or suspensions in an aqueous vehicle containing 0.9% NaCl, 0.5% sodium carboxymethyl-cellulose, 0.4% polysorbate 80, 0.9% benzyl alcohol and 97.3% water. Control rats received vehicle alone. One hour after compound administration, 0.3 ml/100 g body weight of 0.75% solution of acetic acid was injected intraperitoneally. The acetic acid injection induces a series of characteristic writhing responses, which were counted over the period between 15 and 30 minutes after the injection. The analgesic activity of test materials is expressed as the percentage inhibition of writhing in the test group relative to the control group.

COX I = COX I (Homo sapiens, UniProt P23219); assay: Inhibition of COX I in vitro, partially purified enzyme, radiometric assay; format: biochemical; parameters: made in house; details: 20 micromolar arachidonic acid
Chain of COX I (P23219 24-599): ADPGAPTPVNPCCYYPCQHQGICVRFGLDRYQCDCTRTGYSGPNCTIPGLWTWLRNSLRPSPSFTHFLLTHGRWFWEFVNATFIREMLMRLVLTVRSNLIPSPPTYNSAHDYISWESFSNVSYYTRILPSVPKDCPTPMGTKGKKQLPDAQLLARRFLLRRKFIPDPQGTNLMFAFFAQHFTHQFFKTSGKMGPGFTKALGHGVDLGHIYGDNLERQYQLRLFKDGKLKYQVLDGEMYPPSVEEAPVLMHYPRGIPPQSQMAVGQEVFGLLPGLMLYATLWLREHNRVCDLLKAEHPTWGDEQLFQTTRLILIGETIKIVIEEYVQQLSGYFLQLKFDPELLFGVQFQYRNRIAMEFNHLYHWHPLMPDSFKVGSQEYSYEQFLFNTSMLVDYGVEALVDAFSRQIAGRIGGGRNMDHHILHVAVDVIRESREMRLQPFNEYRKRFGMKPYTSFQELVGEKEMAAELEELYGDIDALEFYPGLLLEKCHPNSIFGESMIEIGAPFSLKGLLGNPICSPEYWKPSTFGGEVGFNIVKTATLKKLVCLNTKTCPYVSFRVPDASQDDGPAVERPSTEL
Experimental: (§1) The COX I and COX II inhibitory activity of compounds of this invention in vitro was determined using partially purified COX I and COX II enzymes, prepared as described in J. Barnett et al, Biochim. Biophys.
(§2) COX I and COX II samples were diluted with Tris-HCl buffer (50 mM Tris-HCl, pH 7.9) containing 2 mM EDTA and 10% glycerol and reconstituted by incubating first with 2 mM phenol for 5 minutes and then with 1 micromolar hematin for an additional 5 minutes. 125 μl of the reconstituted COX I or COX II enzyme were preincubated for 10 minutes at room temperature in a shaking water bath with the compounds of the invention dissolved in 2-15 μl of DMSO or the carrier vehicles (control samples). The enzyme reaction was initiated by adding 25 μl of 1-[14C]arachidonic acid (80,000-100,000 cpm/tube; 20 micromolar final concentration) and the reaction was allowed to continue for an additional 45 seconds. The reaction was terminated by adding 100 μl of 2N HCl and 750 μl water. An aliquot (950 μl) of the reaction mixture was loaded onto a 1 ml C18 Sep-Pak column (J. T. Baker, Phillipsburg, N.J.) which had been previously washed with 2-3 ml methanol and equilibrated with 5-6 ml distilled water. Oxygenated products were quantitatively eluted with 3 ml of acetonitrile/water/acetic acid (50:50:0.1, v/v) and the radioactivity in the eluate determined in a scintillation counter.

[2] = test system: prostaglandin E2 synthesis; assay: Inhibition of eicosanoid (PGE2) synthesis in vivo, carrageenan air-pouch model in rats; parameters: species or system rat; details: oral, male rats
Experimental: In this assay, an air-pouch is created in the rat and the PGE2 levels in the air-pouch exudate are measured by enzyme immunoassay. Briefly, male rats were anesthetized using a 60:40 CO2 :O2 mixture and subsequently injected subcutaneously with 20 ml of sterilized air, under aseptic conditions, in the proximal area of the dorsum. This injection of sterile air causes the creation of a subcutaneous "air pouch". The next day, a further 10 ml of sterile air was injected into the previously formed pouch using the same technique. […] Control rats received vehicle alone. After 30 minutes, 5 ml of a 0.5% solution of carrageenan (Sigma, Lambda Type IV) was injected into the air pouch. The rats were euthanized 3 hr after the compound administration. […] The total exudate volume was recorded, and the samples were analyzed for PGE2 and 6-keto PGF1 by ELISA (Titerzyme®, PerSeptive Diagnostics) and TxB2 by radioimmuno assay (New England Nuclear Research, Catalog No. NEK-037), according to the manufacturer's directions.
The mean concentrations of PGE2 were calculated for each group. The anti-inflammatory activity of test materials is expressed as the percent inhibition of PGE2 formation in the test group relative to the control group.

[3] = Carrageenan-induced paw edema in the rat (anti-inflammatory activity); format: in vivo; details: 3 h, 10 mg/Kg, oral, female rats, read-out: % inhibition of increase in hind paw weight
Experimental: The anti-inflammatory activity of compounds of this invention was determined by measuring the inhibition of carrageenan-induced paw edema in the rat, using a modification of the method described in Winter C. k et al (1962) "Carrageenan-Induced Edema in Hind Paw of the Rat as an Assay for Anti-inflammatory Drugs". Proc. Soc. Exp. Biol. Med. 111: 544-547. This assay has been used as a primary in vivo screen for anti-inflammatory activity of most NSAIDs, and is considered predictive of human efficacy. Briefly, test materials were administered orally to female rats in a volume of 1 ml prepared as solutions or suspensions in an aqueous vehicle containing 0.9% NaCl, 0.5% sodium carboxymethyl-cellulose, 0.4% polysorbate 80, 0.9% benzyl alcohol and 97.3% distilled water. Control rats received vehicle alone. After 1 hr 0.05 ml of a 0.5% solution of Carrageenan (Type IV Lambda, Sigma Chemical Co.) in 0.9% saline was injected into the subplantar region of the right hind paw. Three hours later the rats were euthanized in a carbon dioxide atmosphere; hind paws were removed by severing at the tatso-crural joint; and the left and right paws were weighed. The increase in weight of the right paw over the left paw was obtained for each animal and the mean increases were calculated for each group. The anti-inflammatory activity of the test materials is expressed as the percent inhibition of the increase in hind paw weight of the test group relative to the vehicle-dosed control group.
The anti-inflammatory activities (expressed as % inhibition) of some of the compounds of the invention were: […]

COX II = biological target: T1, COX II (Homo sapiens, UniProt P35354); assay: Inhibition of COX II in vitro, partially purified enzyme, radiometric assay; format: biochemical; parameters: made in house; details: 20 micromolar arachidonic acid
T1 sequence (P35354 18-604): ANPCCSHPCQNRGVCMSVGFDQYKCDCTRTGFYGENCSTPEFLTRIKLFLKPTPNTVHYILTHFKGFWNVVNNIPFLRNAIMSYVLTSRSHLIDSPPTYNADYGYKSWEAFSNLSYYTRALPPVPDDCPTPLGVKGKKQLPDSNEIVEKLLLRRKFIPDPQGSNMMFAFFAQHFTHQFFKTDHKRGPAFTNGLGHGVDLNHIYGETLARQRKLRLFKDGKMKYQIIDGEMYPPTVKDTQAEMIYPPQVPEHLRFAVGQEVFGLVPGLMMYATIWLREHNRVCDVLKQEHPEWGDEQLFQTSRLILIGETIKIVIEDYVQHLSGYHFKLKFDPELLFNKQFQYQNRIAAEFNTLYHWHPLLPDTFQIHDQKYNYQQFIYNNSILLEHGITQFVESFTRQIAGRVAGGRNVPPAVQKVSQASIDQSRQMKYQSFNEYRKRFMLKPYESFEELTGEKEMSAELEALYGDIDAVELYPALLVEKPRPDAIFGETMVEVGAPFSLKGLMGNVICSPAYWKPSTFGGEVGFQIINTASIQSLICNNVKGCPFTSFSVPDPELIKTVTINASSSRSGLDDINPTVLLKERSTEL
Experimental: as §1, §2

[4] = Alzheimer's patients; Rogers, J., et. al., Neurology, (1993), 43, 1609; cited from earlier work

| Structure (SMILES) | % inhibition of writhing responses [1] [%] | IC50 (COX I) [µM] | % inhibition of air pouch PGE2 formation ([2]; 10 mg/Kg) [%] | inhibition in vivo at 10 mg/kg [3] [%] | IC50 (COX II) [nM] | % inhibition of air pouch PGE2 formation ([2]; 2-5 mg/Kg) [%] | effect on cognitive decline [4] |
| --- | --- | --- | --- | --- | --- | --- | --- |
| COc1ccc(C(=O)c2cccc(Cc3ccc(=O)[nH]n3)c2Cl)cc1 [Cpd 2, 6-[3-(4-methoxybenzoyl)-2-chlorobenzyl]-2H-pyridazin-3-one] | 9 | 57 | 32 | 20 | 100 |  |  |
| COc1ccc2c(c1)c(CC(=O)O)c(C)n2C(=O)c1ccc(Cl)cc1 [Indomethacin, reference compound] |  |  |  |  |  | > 70 | inhibit the cognitive decline of Alzheimer's patients |
